Columns and labels:
[1] = target: Tyrosine-protein kinase JAK2 (Homo sapiens, UniProt O60674); experiment: Inhibition of recombinant human GST-tagged cytoplasmic JAK2 (809 to 1153 residues) expressed in baculovirus expression system by Z'-LYTE assay
Sphingosine kinase 1 = Sphingosine kinase 1 (Homo sapiens, UniProt Q9NYA1); experiment: Inhibition of full-length recombinant human GST-tagged SPHK1 by Z'-LYTE assay
[2] = target: T1, Inhibitor of nuclear factor kappa-B kinase subunit epsilon (Homo sapiens, UniProt Q14164); experiment: Inhibition of full-length recombinant human GST-tagged IKK-epsilon expressed in baculovirus expression system by Z'-LYTE assay
T1 sequence (Q14164 whole entry): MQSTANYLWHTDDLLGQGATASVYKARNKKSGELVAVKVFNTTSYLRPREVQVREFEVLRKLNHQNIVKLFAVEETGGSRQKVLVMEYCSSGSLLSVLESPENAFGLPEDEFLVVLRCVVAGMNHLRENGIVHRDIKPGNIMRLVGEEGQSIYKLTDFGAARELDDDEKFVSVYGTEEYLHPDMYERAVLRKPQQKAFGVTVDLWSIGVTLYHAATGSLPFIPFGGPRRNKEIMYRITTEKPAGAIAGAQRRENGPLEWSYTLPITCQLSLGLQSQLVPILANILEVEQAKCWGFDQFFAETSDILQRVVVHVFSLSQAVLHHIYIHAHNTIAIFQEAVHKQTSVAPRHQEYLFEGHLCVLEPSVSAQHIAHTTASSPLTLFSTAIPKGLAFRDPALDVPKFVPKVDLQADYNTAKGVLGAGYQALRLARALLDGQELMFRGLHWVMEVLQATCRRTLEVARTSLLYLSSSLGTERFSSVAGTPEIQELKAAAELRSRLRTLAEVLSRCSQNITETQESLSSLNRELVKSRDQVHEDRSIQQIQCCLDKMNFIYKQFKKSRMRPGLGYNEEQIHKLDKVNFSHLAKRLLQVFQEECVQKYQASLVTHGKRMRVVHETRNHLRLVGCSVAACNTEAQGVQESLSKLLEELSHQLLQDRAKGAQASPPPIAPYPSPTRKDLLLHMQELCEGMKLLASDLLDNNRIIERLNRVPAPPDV

[3] = target: T2, Tyrosine-protein kinase ZAP-70 (Homo sapiens, UniProt P43403); experiment: Inhibition of full-length recombinant human His-tagged cytoplasmic ZAP70 expressed in baculovirus expression system by Z'-LYTE assay
T2 sequence (P43403 whole entry): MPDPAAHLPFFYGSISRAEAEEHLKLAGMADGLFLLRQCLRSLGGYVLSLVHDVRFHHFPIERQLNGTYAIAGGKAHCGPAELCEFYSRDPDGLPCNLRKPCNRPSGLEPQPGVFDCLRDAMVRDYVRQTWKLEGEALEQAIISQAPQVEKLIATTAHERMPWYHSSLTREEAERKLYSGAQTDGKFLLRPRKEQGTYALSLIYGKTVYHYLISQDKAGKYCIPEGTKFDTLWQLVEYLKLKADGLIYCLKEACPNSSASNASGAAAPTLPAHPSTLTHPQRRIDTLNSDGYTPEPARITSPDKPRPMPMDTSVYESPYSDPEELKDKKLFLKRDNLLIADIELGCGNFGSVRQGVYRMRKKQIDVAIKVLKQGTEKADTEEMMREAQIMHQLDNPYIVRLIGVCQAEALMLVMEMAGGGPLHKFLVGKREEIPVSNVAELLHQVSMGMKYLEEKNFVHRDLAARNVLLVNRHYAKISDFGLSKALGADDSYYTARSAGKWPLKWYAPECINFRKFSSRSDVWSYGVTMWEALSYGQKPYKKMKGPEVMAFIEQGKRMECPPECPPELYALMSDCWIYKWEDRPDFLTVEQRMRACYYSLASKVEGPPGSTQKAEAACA

[4] = target: Hepatocyte growth factor receptor (Homo sapiens, UniProt P08581); experiment: Inhibition of recombinant human N-terminal His-tagged cytoplasmic MET (956 to 1390 residues) expressed in baculovirus expression system by Z'-LYTE assay
Hepatocyte growth factor receptor, sequence (P08581 whole entry, the tested form may be a part): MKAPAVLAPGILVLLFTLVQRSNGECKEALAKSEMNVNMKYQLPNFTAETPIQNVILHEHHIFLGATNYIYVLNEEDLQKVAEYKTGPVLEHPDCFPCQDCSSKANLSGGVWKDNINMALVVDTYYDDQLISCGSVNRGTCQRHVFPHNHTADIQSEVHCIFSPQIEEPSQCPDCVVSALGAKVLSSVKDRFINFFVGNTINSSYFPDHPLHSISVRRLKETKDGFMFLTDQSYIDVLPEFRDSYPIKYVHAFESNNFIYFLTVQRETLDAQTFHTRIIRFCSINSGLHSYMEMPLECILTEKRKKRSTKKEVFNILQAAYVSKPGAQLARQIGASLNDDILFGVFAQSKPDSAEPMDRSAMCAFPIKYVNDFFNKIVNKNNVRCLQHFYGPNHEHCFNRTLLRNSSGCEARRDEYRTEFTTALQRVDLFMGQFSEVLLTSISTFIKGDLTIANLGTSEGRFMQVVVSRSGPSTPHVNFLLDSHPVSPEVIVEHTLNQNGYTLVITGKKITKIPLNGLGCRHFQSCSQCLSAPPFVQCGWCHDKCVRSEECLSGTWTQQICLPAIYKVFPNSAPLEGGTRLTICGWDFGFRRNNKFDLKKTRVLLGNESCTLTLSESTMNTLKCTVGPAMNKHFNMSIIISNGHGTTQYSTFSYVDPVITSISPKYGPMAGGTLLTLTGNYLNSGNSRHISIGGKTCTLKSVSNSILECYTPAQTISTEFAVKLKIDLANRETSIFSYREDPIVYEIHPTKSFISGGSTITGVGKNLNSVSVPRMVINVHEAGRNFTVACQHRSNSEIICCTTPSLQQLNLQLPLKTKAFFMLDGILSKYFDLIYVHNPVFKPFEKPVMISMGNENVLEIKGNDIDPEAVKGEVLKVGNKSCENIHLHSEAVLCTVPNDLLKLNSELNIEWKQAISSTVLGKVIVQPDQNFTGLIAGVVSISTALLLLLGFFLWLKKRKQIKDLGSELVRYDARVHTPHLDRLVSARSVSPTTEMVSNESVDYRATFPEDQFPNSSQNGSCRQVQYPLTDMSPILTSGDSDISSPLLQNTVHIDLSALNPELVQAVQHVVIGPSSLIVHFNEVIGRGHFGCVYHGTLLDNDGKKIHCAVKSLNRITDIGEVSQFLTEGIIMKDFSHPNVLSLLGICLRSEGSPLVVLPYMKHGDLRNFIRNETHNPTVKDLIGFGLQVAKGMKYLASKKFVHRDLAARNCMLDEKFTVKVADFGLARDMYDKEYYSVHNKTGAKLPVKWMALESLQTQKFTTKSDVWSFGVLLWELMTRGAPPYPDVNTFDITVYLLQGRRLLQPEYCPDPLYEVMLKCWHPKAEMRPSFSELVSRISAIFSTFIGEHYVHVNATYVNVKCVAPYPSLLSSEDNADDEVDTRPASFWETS

[5] = target: T3, MAP/microtubule affinity-regulating kinase 4 (Mus musculus, UniProt Q8CIP4); experiment: Inhibition of MARK4 in mouse cortical neurons assessed as inhibition of okadaic acid-induced tau phosphorylation at S262 residue preincubated for 15 mins followed okadaic acid challenge for 1.5 hrs by immunostaining method
T3 sequence (Q8CIP4 whole entry): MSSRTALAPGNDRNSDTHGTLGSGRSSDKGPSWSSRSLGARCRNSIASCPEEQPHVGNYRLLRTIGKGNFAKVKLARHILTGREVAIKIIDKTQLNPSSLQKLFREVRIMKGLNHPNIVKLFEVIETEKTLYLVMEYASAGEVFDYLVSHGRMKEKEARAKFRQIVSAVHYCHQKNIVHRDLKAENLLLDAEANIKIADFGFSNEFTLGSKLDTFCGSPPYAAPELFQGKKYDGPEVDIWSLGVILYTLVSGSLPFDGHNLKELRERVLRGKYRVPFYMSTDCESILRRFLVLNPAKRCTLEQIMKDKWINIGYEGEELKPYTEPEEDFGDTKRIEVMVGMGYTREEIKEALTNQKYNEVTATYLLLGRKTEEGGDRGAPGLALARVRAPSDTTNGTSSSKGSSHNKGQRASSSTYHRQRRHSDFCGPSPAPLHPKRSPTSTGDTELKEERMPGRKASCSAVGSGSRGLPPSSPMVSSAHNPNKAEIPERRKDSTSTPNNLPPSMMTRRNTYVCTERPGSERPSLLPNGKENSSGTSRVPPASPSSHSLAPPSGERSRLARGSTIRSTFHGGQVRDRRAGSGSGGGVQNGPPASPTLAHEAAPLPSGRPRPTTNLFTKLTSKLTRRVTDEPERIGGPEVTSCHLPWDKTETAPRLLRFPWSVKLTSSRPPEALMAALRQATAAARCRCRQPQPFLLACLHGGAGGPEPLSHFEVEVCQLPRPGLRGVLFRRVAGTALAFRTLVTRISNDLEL

[6] = target: Mitogen-activated protein kinase 9 (Homo sapiens, UniProt P45984); experiment: Inhibition of full-length recombinant human His-tagged MAPK9 expressed in baculovirus expression system by Z'-LYTE assay
Mitogen-activated protein kinase 9, sequence (P45984 whole entry): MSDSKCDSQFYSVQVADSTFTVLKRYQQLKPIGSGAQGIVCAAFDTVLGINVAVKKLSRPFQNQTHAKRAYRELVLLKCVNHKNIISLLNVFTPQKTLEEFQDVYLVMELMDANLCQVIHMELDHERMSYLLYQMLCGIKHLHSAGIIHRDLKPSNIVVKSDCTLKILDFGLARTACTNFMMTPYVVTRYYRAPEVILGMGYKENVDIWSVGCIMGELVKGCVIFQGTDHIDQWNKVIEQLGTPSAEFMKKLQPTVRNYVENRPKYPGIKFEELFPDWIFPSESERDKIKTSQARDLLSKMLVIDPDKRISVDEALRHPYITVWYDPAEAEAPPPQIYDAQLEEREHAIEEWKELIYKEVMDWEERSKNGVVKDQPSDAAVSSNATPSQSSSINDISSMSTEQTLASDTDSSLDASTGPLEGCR

[7] = target: Casein kinase II subunit alpha (Homo sapiens, UniProt P68400); experiment: Inhibition of full-length recombinant human His-tagged CSNK2A1 expressed in baculovirus expression system by Z'-LYTE assay
Casein kinase II subunit alpha, sequence (P68400 whole entry): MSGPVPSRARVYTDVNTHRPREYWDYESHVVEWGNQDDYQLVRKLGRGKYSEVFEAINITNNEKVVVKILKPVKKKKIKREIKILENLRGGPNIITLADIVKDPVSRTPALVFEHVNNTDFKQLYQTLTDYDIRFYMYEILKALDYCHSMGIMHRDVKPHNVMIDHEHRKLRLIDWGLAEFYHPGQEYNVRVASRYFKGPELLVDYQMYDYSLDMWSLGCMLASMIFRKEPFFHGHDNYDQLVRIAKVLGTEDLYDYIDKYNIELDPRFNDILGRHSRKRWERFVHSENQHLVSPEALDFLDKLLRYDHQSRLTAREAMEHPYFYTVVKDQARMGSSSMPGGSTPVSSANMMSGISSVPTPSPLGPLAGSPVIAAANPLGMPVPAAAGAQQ

Tyrosine-protein kinase JAK2, sequence (O60674 whole entry, the tested form may be a part): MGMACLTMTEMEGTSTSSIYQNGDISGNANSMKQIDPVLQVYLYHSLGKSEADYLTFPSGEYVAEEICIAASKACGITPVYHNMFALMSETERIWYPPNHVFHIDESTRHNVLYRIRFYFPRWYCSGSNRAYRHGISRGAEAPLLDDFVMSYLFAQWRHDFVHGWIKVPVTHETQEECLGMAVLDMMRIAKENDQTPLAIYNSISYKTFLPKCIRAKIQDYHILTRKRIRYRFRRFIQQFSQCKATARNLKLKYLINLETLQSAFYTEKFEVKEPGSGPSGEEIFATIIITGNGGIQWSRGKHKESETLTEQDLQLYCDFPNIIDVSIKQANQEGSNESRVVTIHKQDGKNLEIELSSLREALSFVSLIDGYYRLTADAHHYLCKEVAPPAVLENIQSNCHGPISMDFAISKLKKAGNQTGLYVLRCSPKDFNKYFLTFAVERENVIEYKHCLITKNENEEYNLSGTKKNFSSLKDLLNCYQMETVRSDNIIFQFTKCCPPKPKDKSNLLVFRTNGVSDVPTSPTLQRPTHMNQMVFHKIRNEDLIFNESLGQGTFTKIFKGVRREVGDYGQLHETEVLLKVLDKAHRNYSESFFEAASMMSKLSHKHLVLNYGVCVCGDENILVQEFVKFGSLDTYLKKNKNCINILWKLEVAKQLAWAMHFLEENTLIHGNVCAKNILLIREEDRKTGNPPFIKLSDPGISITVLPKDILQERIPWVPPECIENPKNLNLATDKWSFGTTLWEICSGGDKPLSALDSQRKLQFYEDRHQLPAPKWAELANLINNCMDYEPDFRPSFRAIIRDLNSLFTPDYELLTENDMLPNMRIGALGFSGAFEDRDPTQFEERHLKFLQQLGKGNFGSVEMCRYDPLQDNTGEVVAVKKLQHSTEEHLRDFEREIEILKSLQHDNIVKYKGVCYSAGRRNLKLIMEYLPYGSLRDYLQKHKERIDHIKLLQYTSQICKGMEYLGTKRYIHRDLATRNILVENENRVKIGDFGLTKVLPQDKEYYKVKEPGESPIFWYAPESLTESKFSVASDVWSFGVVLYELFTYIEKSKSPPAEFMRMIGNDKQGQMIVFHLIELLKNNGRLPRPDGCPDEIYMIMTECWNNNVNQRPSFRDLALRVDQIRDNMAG
Sphingosine kinase 1, sequence (Q9NYA1 whole entry): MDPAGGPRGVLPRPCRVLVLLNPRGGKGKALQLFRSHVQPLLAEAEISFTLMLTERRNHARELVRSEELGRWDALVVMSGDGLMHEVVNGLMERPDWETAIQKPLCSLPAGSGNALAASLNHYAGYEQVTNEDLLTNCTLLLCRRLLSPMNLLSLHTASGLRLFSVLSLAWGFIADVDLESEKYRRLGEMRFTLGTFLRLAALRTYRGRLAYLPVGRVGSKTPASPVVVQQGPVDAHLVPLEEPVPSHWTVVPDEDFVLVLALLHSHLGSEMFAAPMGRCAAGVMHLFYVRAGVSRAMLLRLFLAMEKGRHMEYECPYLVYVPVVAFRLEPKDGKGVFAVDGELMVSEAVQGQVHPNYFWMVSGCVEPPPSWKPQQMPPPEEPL

Structure (SMILES) | IC50 [1] [nM] | IC50 (Sphingosine kinase 1) [nM] | IC50 [2] [nM] | IC50 [3] [nM] | IC50 [4] [nM] | IC50 [5] [nM] | IC50 [6] [nM] | IC50 [7] [nM]
Cn1cc(-c2cnc3c(-c4csc(C(=O)NCC(F)(F)F)c4)cnn3c2)cn1 | 1200 | > 100000 | < 10 | > 100000 | 4000 | 60 | 1700 | > 100000
Cc1sc(C(=O)N[C@@H]2[C@H](N)CCCC2(F)F)cc1-c1cnn2cc(Cl)cnc12 | 4400 | > 100000 | 48 | > 100000 | 8500 | 280 | 4400 | > 100000
O=C(NCC(F)(F)F)c1cc(-c2cnn3cc(-c4ccc(OCCN5CCCCC5)cc4)cnc23)cs1 | 2400 | 32000 | < 10 | > 100000 | 1400 | 50 | 850 | 8300
Cn1cc(-c2cnc3c(-c4csc(C(=O)N[C@@H]5CCCC[C@@H]5N)c4)cnn3c2)cn1 (racemic) | 64 | > 10000 | 7.1 | > 10000 | 410 | 2 | 640 | > 10000

Source: ChEMBL document CHEMBL4477252, “Optimization of microtubule affinity regulating kinase (MARK) inhibitors with improved physical properties” (Bioorg Med Chem Lett, 2016)
